Measurements from patent US20250171404A1, “PCNA INHIBITORS AND USES THEREOF” (CITY OF HOPE, priority 2022, published 2025).
Values after ≈ are worked out from the molar mass of the structure shown. Where two headings read alike, the source gives them in different places. Each block holds one molecule with its values, some of them ahead of it.

What was measured:
[1] = test system: SK-N-AS; assay: Cell growth IC50, screening of AOH1160 analogs; format: cell-based; conditions: Homo sapiens, read-out: IC50 values
Protocol: (§1) FIG. 29. IC50 data for select compounds. The indicated cell lines were seeded at 10^4 cells per well in a 96 well plate. After allowing to attach to the plate overnight, cells were treated with various concentrations of the indicated compounds in triplicates for 72 hrs. The cell growth was measured by an SRB assay. The cell abundances under each treatment condition relative to the baseline were averaged and graphed ±S.D. The baseline is defined as the median value of the cell abundances under the treatment by the two lowest compound concentrations. The IC50 was calculated by the Prism program.

[2] = test system: SK-N-BE(2)c; assay: Cell growth IC50, screening of AOH1160 analogs; format: cell-based; conditions: Homo sapiens
Protocol: as §1

[3] = test system: SK-N-DZ; assay: Cell growth IC50, screening of AOH1160 analogs; format: cell-based; conditions: Homo sapiens
Protocol: as §1

[4] = Cell growth IC50, screening of AOH1160 analogs (cell line not given); format: cell-based
Protocol: as §1

[5] = test system: SH-SY5Y; assay: Cell growth IC50, screening of AOH1160 analogs; format: cell-based; conditions: Homo sapiens
Protocol: as §1

[6] = test system: MDA-MB-468; assay: Cell growth IC50, screening of AOH1160 analogs; format: cell-based; conditions: Homo sapiens, MDA-MB-468; read-out: IC50 values
Protocol: as §1

[7] = test system: SK-N-FI; assay: Cell growth IC50, screening of AOH1160 analogs; format: cell-based; conditions: Homo sapiens
Protocol: as §1

[8] = biological target: T1, PCNA (Homo sapiens, UniProt P12004); assay: Thermal denaturation (thermal shift) assay; format: binding; conditions: 9 μM PCNA; 10 or 30 μM compound; dose dependent
T1 construct: made in house; host or cells: E. coli Rosetta 2 (DE3)
T1 sequence (P12004 whole entry): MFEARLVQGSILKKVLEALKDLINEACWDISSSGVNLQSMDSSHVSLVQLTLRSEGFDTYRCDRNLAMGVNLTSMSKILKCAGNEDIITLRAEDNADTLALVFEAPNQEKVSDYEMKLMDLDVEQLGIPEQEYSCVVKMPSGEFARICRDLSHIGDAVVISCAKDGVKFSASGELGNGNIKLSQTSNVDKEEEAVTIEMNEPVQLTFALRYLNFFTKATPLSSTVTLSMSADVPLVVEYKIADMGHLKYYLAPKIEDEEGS
Protocol: FIGS. 1A-1E. AOH1160 analog interactions with PCNA. FIG. 1A: Thermal shift assay: Normalized inverse derivative thermal denaturation plots of 9 μM apo-PCNA with DMSO control is depicted with a black dashed line and PCNA in the presence of 10 μM AOH1160LE is shown in light grey and 30 μM AOH1160LE in dark grey. ΔTm values are provided. FIG. 1B: As described in FIG. 1A, in the presence of 10 μM AOH1996 depicted in light grey and 30 μM AOH1996 depicted in dark grey. FIG. 1C: Four monomers (chains A-D) of PCNA are present in the asymmetric unit of the crystal. Chains A, B, and C form the homotrimer biological unit, while chain Dis orientated perpendicular to the plane of the ring, below the interface of chains B and C and it belongs to an adjacent ring. Inset: Three molecules of AOH1160LE bind in and adjacent to the PIP box cavity of each of the PCNA ring subunits. The omit map, gray mesh, is contoured to 1.56. Two PCNA monomer subunits from adjacent rings stack against each other, placing the PIP box and IDCLs of each subunit in opposing directions. FIG. 1D: The three AOH1160LE molecules are shown as stick figure representations. Two of the compounds, left and central, bind into the PIP box cavity at known PCNA-partner/compound interaction sites. […] The electrostatic surface maps are depicted with Poisson-Boltzmann electrostatic surface potentials shown in dark grey and light grey, corresponding to −10 to +10 kT/e respectively.
Targeting the PIP box and APIM binding domain of PCNA. AOH1160, a small molecule PCNA ligand, targets the cancer-distinct L126-Y133 region of PCNA (Malkas et al., 2006) and is selectively toxic to cancer cells (Gu et al., 2018). […]
Thermal denaturation assay for PCNA-AOH1996 interaction. […] Fluorescence intensity was measured within the excitation/emission ranges 470-505/540-700 nm.

[9] = Solubility in aqueous buffer with 10% DMSO; format: physicochemical; conditions: pH 7.4, aqueous with cosolvent or surfactant or cyclodextrin, read-out: soluble at concentration
Protocol: AOH1160LE was soluble at a 4 mM concentration in aqueous buffer with 10% DMSO, which enabled co-crystallization studies on this analog. A PCNA:AOH1160LE co-crystal diffracted to 2.85 Å resolution at the synchrotron source, and phasing was provided by molecular replacement. Four PCNA subunits were present in the asymmetric unit, with three, chains A, B, C belonging to the homotrimeric ring structure, and the fourth, chain D (FIG. 1C) forms part of an adjacent ring in the unit cell that consists solely of D chains. Packing within the unit cell also places each monomer subunit of the PCNA ring against a subunit from another ring; these two stacked subunits interact via their PIP box binding pockets and […] IDCLs that are orientated in directly opposing directions (FIG. 1D). Clearly observed within the electron density maps are three molecules of AOH1160LE, which bind in and adjacent to the PIP box cavity of each of the PCNA ring subunits, and these compounds have further interactions with the PIP box pocket of the stacked PCNA subunit (FIG. 1D).
Expression, purification and crystallization of PCNA. Human PCNA in a pET22b-hPCNA vector was transformed into E. coli Rosetta 2 (DE3) cells. PCNA expression was induced by 0.4 mM IPTG, OD600=0.6, and cells were grown for 5 hrs at 37° C. […]

[10] = test system: SK-MEL-5; assay: Cell growth IC50, screening of AOH1160 analogs; format: cell-based; conditions: Homo sapiens
Protocol: as §1

[11] = test system: Hela; assay: Cell growth IC50, screening of AOH1160 analogs; format: cell-based; conditions: Homo sapiens
Protocol: as §1

[12] = test system: SK-MEL-28; assay: Cell growth IC50, screening of AOH1160 analogs; format: cell-based; conditions: Homo sapiens
Protocol: as §1

[13] = oral, 40 mg/kg, mice (Gu et al., 2018); cited from earlier work
[14] = test system: A375; assay: Cell growth IC50, screening of AOH1160 analogs; format: cell-based; conditions: Homo sapiens, A-375
Protocol: as §1

[15] = test system: OVCAR8; assay: Cell growth IC50, screening of AOH1160 analogs; format: cell-based; conditions: Homo sapiens, OVCAR-8; OVCAR8; read-out: IC50 values
Protocol: as §1

[16] = test system: MDA-MB-231; assay: Cell growth IC50, screening of AOH1160 analogs; format: cell-based; conditions: Homo sapiens
Protocol: as §1

[17] = test system: HCT-116; assay: Cell growth IC50, screening of AOH1160 analogs; format: cell-based; conditions: Homo sapiens, HCT-116; read-out: IC50 values
Protocol: as §1

[18] = test system: RKO; assay: Cell growth IC50, screening of AOH1160 analogs; format: cell-based; conditions: Homo sapiens, read-out: IC50 values
Protocol: as §1

[19] = test system: A549; assay: Cell growth IC50, screening of AOH1160 analogs; format: cell-based; conditions: Homo sapiens
Protocol: as §1

[20] = test system: A673; assay: Cell growth IC50, screening of AOH1160 analogs; format: cell-based; conditions: Homo sapiens
Protocol: as §1

- IC50 [1]: > 10000 nM
- IC50 [2]: > 10000 nM
- IC50 [3]: > 10000 nM
SMILES: O=C(CNC(=O)c1cccc2ccccc12)Nc1c(Cl)cccc1Oc1ccccc1 [AOH1160-2-C1]

- IC50 [5]: 4000 nM
- IC50 [6]: 4900 nM
- IC50 [7]: 3000 nM
SMILES: C[C@H](NC(=O)c1cccc2ccccc12)C(=O)Nc1ccccc1Oc1ccccc1 [AOH1160LA, (S)—N-(1-oxo-1-((2-phenoxyphenyl)amino)propan-2-yl)-1-naphthamide]
- IC50 ([4]; FIG. 25, read-out: IC50): ~3000 nM

- shift of protein melting curves (ΔTm) [8]: ≤ 0.5 °C
- solubility [9]: 4 mM (≈ 1870 µg/mL)
SMILES: O=C(O)CC[C@H](NC(=O)c1cccc2ccccc12)C(=O)Nc1ccccc1Oc1ccccc1 [AOH1160LE]
- IC50 ([4]; read-out: IC50 values): > 10000 nM

- IC50 [10]: 610 nM
- IC50 ([11]; HeLa, read-out: IC50 values): 290 nM
- IC50 [12]: 340 nM
- IC50 [6]: 316 nM
SMILES: O=C(CNC(=O)c1cccc2ccccc12)Nc1ccccc1Sc1ccccc1 [AOH1160S, N-(2-oxo-2-((2-(phenylthio)phenyl)amino)ethyl)-1-naphthamide]

- IC50 [1]: 107 nM
- IC50 [2]: 325 nM
- IC50 [3]: 237 nM
SMILES: O=C(CNC(=O)c1cccc2ccccc12)Nc1ccccc1Oc1ccccc1 [AOH1160]
- half-life [13]: 3.4 h

- IC50 [14]: 170 nM
- IC50 ([11]; HeLa, read-out: IC50 values): 370 nM
SMILES: COc1cccc(Sc2ccccc2NC(=O)CNC(=O)c2cccc3ccccc23)c1 [AOH1996S, N-(2-((2-((3-methoxyphenyl)thio)phenyl)amino)-2-oxoethyl)-1-naphthamide]

- IC50 [15]: 410 nM
- IC50 [16]: 220 nM
SMILES: O=C(CNC(=O)c1cccc2ccccc12)Nc1ccccc1Sc1ccccc1F [AOH1996S-2F, N-(2-((2-((2-fluorophenyl)thio)phenyl)amino)-2-oxoethyl)-1-naphthamide]

- IC50 [15]: 1600 nM
- IC50 [17]: 2210 nM
SMILES: O=C(CNC(=O)c1cccc2ccccc12)Nc1ccccc1Sc1cccc(F)c1 [AOH1996S-3F, N-(2-((2-((3-fluorophenyl)thio)phenyl)amino)-2-oxoethyl)-1-naphthamide]
- IC50 [18]: 2320 nM

- IC50 [1]: 370 nM
- IC50 [14]: 350 nM
SMILES: O=C(CNC(=O)c1cccc2ccccc12)Nc1ccccc1Sc1ccc(F)cc1 [AOH1996S-4F, N-(2-((2-((4-fluorophenyl)thio)phenyl)amino)-2-oxoethyl)-1-naphthamide]

- IC50 ([19]; FIG. 27, read-out: IC50): 4700 nM
- IC50 ([19]; read-out: IC50 values): 4700 nM
- IC50 ([11]; HeLa, read-out: IC50 values): 6500 nM
- IC50 ([11]; FIG. 27, Hela, read-out: IC50): 6500 nM
SMILES: COc1cccc(Oc2ccccc2NC(=O)CNC(=O)c2c(C)cc(C)cc2C)c1 [AOH1996TMB, N-(2-((2-(3-methoxyphenoxy)phenyl)amino)-2-oxoethyl)-2,4,6-trimethylbenzamide]
- IC50 ([20]; FIG. 27, read-out: IC50): 5500 nM
- IC50 ([20]; read-out: IC50 values): 5500 nM
